How the values were obtained:
[1] = test system: T-REx-293-NTSR1-GFP cells; assay: High-throughput human miRNA mimic library screen, image-based per cell green fluorescence (NTSR1-GFP expression); details: per cell green fluorescence intensity; for MAD-based z-score: 72 h after transfection plus 24 h tetracycline induction
Method: T-REx-293-NTSR1-GFP cells were screened with a miRNA mimic library (Qiagen) based on Sanger miRBase™ 13.0 and consisting of 875 miRNAs mimics. For transfection, 0.8 pmol of each mimic was spotted to 384 well plate wells (Corning) and 20 μL of serum-free DMEM containing 0.1 μL of Lipofectamine™ RNAiMax (Life Technologies) was then added to each well. This lipid-miRNA mixture was incubated at ambient temperature for 30 min prior to adding 2000 cells in 20 μL of DMEM containing 20% certified FBS (Gibco). Transfected cells were incubated at 37° C. in 5% CO2 for 72 hours and induced with 1 μg/mL tetracycline for 24 hours for NTSR1-GFP expression. Cells were then fixed with 2% paraformaldehyde (Electron Microscopy Sciences), stained with Hoechst™ 33342 (Life Technologies) for 45 minutes and gently washed with PBS. Plates were imaged with an ImageXpress Micro XL™ (Molecular Devices). Total cell number and per cell green fluorescence intensity were calculated using MetaXpress™ software (Molecular Devices) employing the Multi-Wavelength Cell Scoring™ application module. […] A full column of positive control siRNA targeting GFP (GFP-22 siRNA, Qiagen) was also used as on-plate reference for transfection efficiency. The median absolute deviation (MAD)-based z-score was calculated for each sample.

[2] = test system: CMV-Luc2-HygroHEK293 cell line; assay: Validation of miRNAs with luciferase-expressing cells (ONE-Glo / CellTiter-Glo, 12-well); type: cell-based, human; details: 40 nM miRNA, 72 h
Method: CMV-Luc2-HygroHEK293 cell line constitutively expressing luciferase is purchased from Promega. Validation transfections were performed in 12-well plates with miScript miRNA mimics (Qiagen, Cat. No. 219600-S0), SilencerSelect™ Negative Control #2 and lethal control siRNA (Qiagen AllStars Cell Death Control™) served as a control for transfection efficiency. Cells were transfected in duplicates as described above in the screening method with the following modification: 0.1 million cells were transfected with 40 nM miRNA using 6.25 ul Lipofectamine™ RNAiMax in a total volume of 1 mL of media. 72 hours after transfection, 500 μL of ONE-Glo™ Reagent (Promega) was added to one set of replicates for luciferase activity quantification and 500 μL of CellTiter-Glo™ Reagent (Promega) was added to the second set of replicates for viable cell density measurement. All plates were incubated at room temperature for 20 minutes to stabilize luminescent signal and then measured with SpectraMax i3™ plate reader (Molecular Devices). Per cell luciferase production was calculated from overall luciferase activity and viable cell number.

[3] = test system: HEK-GPC3-hFc cell line; assay: Validation of miRNAs with GPC3-hFc-expressing cells (ELISA and cell count); type: cell-based, human; details: 40 nM miRNA, 6 days after transfection, versus siN.C.
Method: HEK-GPC3-hFc cell line constitutively secreting glypican-3 hFc-fusion protein (GPC3-hFc) was a gift from the National Cancer Institute of the NIH. Cells were grown in DMEM supplemented with 10% FBS in a humidified incubator set at 37° C. and 5% CO2.
Cells were transfected in 12-well plates as described above in the screening method with the following modification: 0.15 million cells were transfected with 40 nM miRNA using 6.25 ul Lipofectamine™ RNAiMax in a total volume of 1 mL of media. 6 days after transfection, cell culture supernatant was collected and cleared using centrifuge for GPC3-hFc concentration determination with ELISA and cells were detached and counted by trypan blue exclusion using a CEDEX™ cell quantification system (Roche, Mannheim, Germany). Per cell GPC3-hFc production can be calculated from overall GPC3-hFc yield and viable cell number.
AffiniPure™ F(ab′)2 Fragment Goat Anti-Human IgG (min X Bov, Ms, Rb Sr Prot, Cat. 109-006-170, Jackson Immunology) was used to coat a 96-well plate at 5 μg/mL in PBS buffer, 50 μL per well, at 4° C. overnight. After the plate was blocked with 2% BSA in PBS buffer, pre-diluted cell culture supernatant was added, and the plate was incubated at room temperature for one hour to allow binding to occur. After the plate was washed twice with PBS containing 0.05% Tween 20, Peroxidase-conjugated AffiniPure™ Goat-anti-uman IgG (Cat. 109-035-098, Jackson Immunology) was added at 1:4000 dilutions, 50 ul/well. Following incubating at room temperature for one hour, the plate was washed 4 times and detected with Peroxidase Substrate System (KPL).

[4] = test system: HEK-CMV-Luc2-Hygro cells; assay: Effect of exogenous polyamines on luciferase expression and cell growth; details: for effect of higher concentrations on luciferase expression and viable cell: concentrations above the optimum; for concentration with inhibitory effects: culture medium with ruminant serum
Method: FIG. 13: Effect of exogenous polyamines on luciferase expression and cell growth. Two different passages of cells were treated with the indicated concentrations of polyamines and each biological sample was measured in triplicates. Error bars represent SEM.
To further verify this, the impacts of exogenously added polyamines on luciferase expression level and viable cell number were determined.

| Compound | Signal relative to negative control (%) [1] [%] | MAD-based z-score [1] | other results |
| --- | --- | --- | --- |
| UCCGUCUCAGUUACUUUAUAGC (listed as RNA, chemistry not given here; listed as Homo sapiens) [miR-340-3p, human miRNA mimic] | 159 | 2.3 |  |
| CAGUGCAAUAGUAUUGUCAAAGC (listed as RNA, chemistry not given here; listed as Homo sapiens) [miR-301a-3p, human miRNA mimic] | 176 | 2.9 |  |
| GCUACUUCACAACACCAGGGCC (listed as RNA, chemistry not given here; listed as Homo sapiens) [miR-138-1-3p, human miRNA mimic] | 167 | 2.5 |  |
| AGGAGGCAGCGCUCUCAGGAC [miR-650] | 163 | 2.5 |  |
| CUGUGCGUGUGACAGCGGCUGA [miR-210-3p] | 183 | 3.2 |  |
| AGUUCUUCAGUGGCAAGCUUUA (listed as RNA, chemistry not given here; listed as Homo sapiens) [miR-22-5p, human miRNA mimic] | 215 | 4.0 | improvement of luciferase expression (per cell luciferase activity) ([2]; 12-well, versus siN.C.): relevant for improving luciferase expression; change of overall GPC3-hFc production [3]: effectively enhanced overall GPC3-hFc; improvement of per cell GPC3-hFc secretion [3]: enhanced per cell GPC3-hFc secretion |
| GUGUGUGGAAAUGCUUCUGC (listed as RNA, chemistry not given here; listed as Homo sapiens) [miR-147a, human miRNA mimic] | 168 | 2.6 |  |
| CUGCCAAUUCCAUAGGUCACAG (listed as RNA, chemistry not given here; listed as Homo sapiens) [miR-192-3p, human miRNA mimic] | 148 | 2.0 |  |
| NCCCCN [putrescine] |  |  | increase of luciferase expression ([4]; added to medium at 100 μM): up to 40%; enhanced growth ([4]; addition at 50 μM): 10%; effect of higher concentrations on luciferase expression and viable cell [4]: did not lead to further enhancement of luciferase production |
| AAACCUGUGUUGUUCAAGAGUC (listed as RNA, chemistry not given here; listed as Homo sapiens) [miR-649, human miRNA mimic] | 150 | 2.0 |  |
| AACUGGCCUACAAAGUCCCAGU (listed as RNA, chemistry not given here; listed as Homo sapiens) [miR-193a-3p, human miRNA mimic] | 156 | 2.3 |  |
| CUAUACAGUCUACUGUCUUUCC (listed as RNA, chemistry not given here; listed as Homo sapiens) [let-7f-2-3p, human miRNA mimic] | 178 | 3.0 |  |
| AAGCUGCCAGUUGAAGAACUGU (listed as RNA, chemistry not given here; listed as Homo sapiens) [miR-22-3p, human miRNA mimic] | 158 | 2.3 | cell growth (viable cell density) [2]: inhibited cell growth; overall production of luciferase higher than negative control siN.C. [2]: 127%; change of overall GPC3-hFc production [3]: effectively enhanced overall GPC3-hFc; improvement of per cell GPC3-hFc secretion [3]: enhanced per cell GPC3-hFc secretion |
| UGAGUGCCGGUGCCUGCCCUG (listed as RNA, chemistry not given here; listed as Homo sapiens) [miR-1909-5p, human miRNA mimic] | 169 | 2.6 |  |
| ACUCUUUCCCUGUUGCACUAC (listed as RNA, chemistry not given here; listed as Homo sapiens) [miR-130b-5p, human miRNA mimic] | 178 | 2.9 |  |
| UGAGGUAGUAGGUUGUAUGGUU (listed as RNA, chemistry not given here; listed as Homo sapiens) [let-7c-5p, human miRNA mimic] | 168 | 2.6 |  |
| NCCCCNCCCN [spermidine] |  |  | increase in cell growth ([4]; at 10 μM): 24%; increase in luciferase expression ([4]; at 20 μM): 36%; concentration with inhibitory effects [4]: > 100 µM |
| CAUCCCUUGCAUGGUGGAGGG (listed as RNA, chemistry not given here; listed as Homo sapiens) [miR-188-5p, human miRNA mimic] | 177 | 2.9 |  |
| AACUGGCCCUCAAAGUCCCGCU (listed as RNA, chemistry not given here; listed as Homo sapiens) [miR-193b-3p, human miRNA mimic] | 166 | 2.5 |  |
| UGGUUGUAGUCCGUGCGAGAAUA (listed as RNA, chemistry not given here; listed as Homo sapiens) [miR-1974, human miRNA mimic] | 201 | 3.6 |  |
| ACAGAUUCGAUUCUAGGGGAAU (listed as RNA, chemistry not given here; listed as Homo sapiens) [miR-10b-3p, human miRNA mimic] | 162 | 2.4 |  |
| NCCCNCCCCNCCCN [spermine] |  |  | increase in luciferase expression ([4]; at 10 μM): 16%; effect of higher concentrations on luciferase expression and viable cell [4]: caused reduction in both luciferase expression and viable cell; concentration with inhibitory effects [4]: > 20 µM |

From US20160319277A1, “METHODS OF IMPROVED PROTEIN PRODUCTION USING MIRNAs AND SIRNAs” (THE JOHNS HOPKINS UNIVERSITY, priority 2015, published 2016)
